Measurements taken from ChEMBL document CHEMBL4346735, “Discovery and pharmacological evaluation of indole derivatives as potent and selective RORγt inverse agonist for multiple autoimmune conditions” (Bioorg Med Chem Lett, 2019).
Activity calls are given as the source filed them. The calls are words filed in the database; no cut-off is given here.

Experiments:
[1] = Tmax in mouse at 10 mg/kg, po; type: ADME, organism-based; conditions: in vivo
[2] = AUC (0 to 24 hrs) in mouse at 10 mg/kg, po; type: ADME, organism-based; parameters: dose 10 mg/kg, time < 24 hr, route oral; conditions: in vivo, 24 h
[3] = Oral bioavailability in mouse at 10 mg/kg; type: ADME, organism-based; conditions: in vivo
[4] = Volume of distribution at steady state in mouse at 3 mg/kg, iv; type: ADME, organism-based; conditions: in vivo, read-out: Vdss
[5] = system: Mus musculus; assay: Immunosuppressive activity in MOG (35 to 55 residues)/pertussis toxin-induced experimental allergic encephalomyelitis C57BL/6J mouse model assessed as decrease in ratio of Th17:Th1 at 10 mg/kg, po qd by intracellular staining method; type: functional, organism-based
[6] = species on record: Mus musculus; conditions: C57BL/6J, at 10 mg/kg
Description: Immunosuppressive activity in MOG (35 to 55 residues)/pertussis toxin-induced experimental allergic encephalomyelitis C57BL/6J mouse model assessed as reduction in IL-17 production of CNS infiltrating CD4+ Th17 cells at 10 mg/kg, po qd by intracellular staining method

[7] = Metabolic stability in rat liver microsomes assessed as parent compound remaining at 1 uM preincubated for 5 mins followed by NADPH addition after 30 mins by LC-MS/MS analysis; type: ADME, Microsome; conditions: read-out: Stability
[8] = Metabolic stability in mouse liver microsomes assessed as parent compound remaining at 1 uM preincubated for 5 mins followed by NADPH addition after 30 mins by LC-MS/MS analysis; type: ADME, Microsome; conditions: read-out: Stability
[9] = target: Cytochrome P450 3A4 (Homo sapiens, UniProt P08684); assay: Inhibition of CYP3A4 in human liver microsomes using testosterone as substrate preincubated for 5 mins followed by NADPH addition measured after 10 mins by LC-MS/MS analysis
Sequence of Cytochrome P450 3A4 (P08684 whole entry): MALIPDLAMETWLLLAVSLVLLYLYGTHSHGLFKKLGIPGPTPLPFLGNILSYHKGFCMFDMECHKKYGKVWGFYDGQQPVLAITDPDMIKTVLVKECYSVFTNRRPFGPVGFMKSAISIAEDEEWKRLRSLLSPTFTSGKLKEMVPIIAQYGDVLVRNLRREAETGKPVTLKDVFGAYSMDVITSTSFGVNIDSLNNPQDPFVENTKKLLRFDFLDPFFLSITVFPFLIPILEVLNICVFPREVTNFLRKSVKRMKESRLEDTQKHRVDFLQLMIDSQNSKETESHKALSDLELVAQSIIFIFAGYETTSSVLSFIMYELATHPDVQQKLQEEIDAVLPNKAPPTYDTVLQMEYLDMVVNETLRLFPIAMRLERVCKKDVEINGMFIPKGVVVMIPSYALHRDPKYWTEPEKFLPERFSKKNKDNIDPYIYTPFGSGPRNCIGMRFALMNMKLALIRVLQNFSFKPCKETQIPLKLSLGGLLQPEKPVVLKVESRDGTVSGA

[10] = target: Cytochrome P450 2C19 (Homo sapiens, UniProt P33261); assay: Inhibition of CYP2C19 in human liver microsomes using (S)-mephenytoin as substrate preincubated for 5 mins followed by NADPH addition measured after 40 mins by LC-MS/MS analysis
Sequence of Cytochrome P450 2C19 (P33261 whole entry): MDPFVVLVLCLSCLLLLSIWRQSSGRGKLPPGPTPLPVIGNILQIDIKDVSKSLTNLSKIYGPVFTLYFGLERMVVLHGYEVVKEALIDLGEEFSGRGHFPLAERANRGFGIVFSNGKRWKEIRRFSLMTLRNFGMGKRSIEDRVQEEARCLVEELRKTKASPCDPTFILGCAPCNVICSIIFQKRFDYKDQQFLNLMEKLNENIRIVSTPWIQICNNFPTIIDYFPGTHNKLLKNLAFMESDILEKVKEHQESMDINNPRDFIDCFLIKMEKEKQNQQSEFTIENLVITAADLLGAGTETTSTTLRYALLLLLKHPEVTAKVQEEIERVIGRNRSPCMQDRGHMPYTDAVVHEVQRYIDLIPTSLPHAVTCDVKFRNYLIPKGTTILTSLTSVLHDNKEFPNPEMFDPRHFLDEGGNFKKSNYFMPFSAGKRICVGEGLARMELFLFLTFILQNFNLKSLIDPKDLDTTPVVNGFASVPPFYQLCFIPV

[11] = target: Cytochrome P450 2C9 (Homo sapiens, UniProt P11712); assay: Inhibition of CYP2C9 in human liver microsomes using diclofenac as substrate preincubated for 5 mins followed by NADPH addition measured after 10 mins by LC-MS/MS analysis
Sequence of Cytochrome P450 2C9 (P11712 whole entry): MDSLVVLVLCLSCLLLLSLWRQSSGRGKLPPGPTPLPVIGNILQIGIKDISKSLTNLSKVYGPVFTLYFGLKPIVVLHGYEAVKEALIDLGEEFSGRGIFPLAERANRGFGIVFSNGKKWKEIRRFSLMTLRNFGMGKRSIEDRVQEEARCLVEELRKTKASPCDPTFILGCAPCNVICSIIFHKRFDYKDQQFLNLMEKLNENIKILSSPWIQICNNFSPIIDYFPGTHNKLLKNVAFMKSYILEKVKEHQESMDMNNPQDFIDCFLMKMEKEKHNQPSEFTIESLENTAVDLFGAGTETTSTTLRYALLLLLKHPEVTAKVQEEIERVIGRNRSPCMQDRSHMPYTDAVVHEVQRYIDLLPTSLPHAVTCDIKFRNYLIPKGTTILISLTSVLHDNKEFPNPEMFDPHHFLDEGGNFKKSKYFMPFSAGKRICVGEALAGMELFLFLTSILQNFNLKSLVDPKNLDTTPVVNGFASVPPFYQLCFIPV

[12] = target: T1, Cytochrome P450 1A2 (Homo sapiens, UniProt P05177); assay: Inhibition of CYP1A2 in human liver microsomes using phenacetin as substrate preincubated for 5 mins followed by NADPH addition measured after 10 mins by LC-MS/MS analysis
T1 sequence (P05177 whole entry): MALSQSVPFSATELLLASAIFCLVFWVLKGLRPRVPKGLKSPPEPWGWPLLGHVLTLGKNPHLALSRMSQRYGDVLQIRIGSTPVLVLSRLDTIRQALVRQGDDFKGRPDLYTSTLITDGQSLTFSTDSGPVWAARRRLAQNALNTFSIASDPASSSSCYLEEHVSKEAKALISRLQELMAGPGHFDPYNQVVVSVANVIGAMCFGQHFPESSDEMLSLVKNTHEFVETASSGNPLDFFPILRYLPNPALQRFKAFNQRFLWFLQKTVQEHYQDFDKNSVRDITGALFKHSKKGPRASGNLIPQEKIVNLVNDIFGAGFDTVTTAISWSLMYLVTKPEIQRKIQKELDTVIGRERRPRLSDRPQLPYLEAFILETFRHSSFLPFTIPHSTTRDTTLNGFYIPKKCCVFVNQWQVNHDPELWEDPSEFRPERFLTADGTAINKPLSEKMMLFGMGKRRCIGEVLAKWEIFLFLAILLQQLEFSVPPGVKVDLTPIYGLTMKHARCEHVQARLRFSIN

[13] = Half life in mouse at 3 mg/kg, iv; type: ADME, organism-based; conditions: in vivo
[14] = Cmax in mouse at 10 mg/kg, po; type: ADME, organism-based; parameters: dose 10 mg/kg, route oral; conditions: in vivo
[15] = Metabolic stability in human liver microsomes assessed as parent compound remaining at 1 uM preincubated for 5 mins followed by NADPH addition after 30 mins by LC-MS/MS analysis; type: ADME, Microsome; conditions: read-out: Stability
[16] = system: Mus musculus; assay: Immunosuppressive activity in MOG (35 to 55 residues)/pertussis toxin-induced experimental allergic encephalomyelitis C57BL/6J mouse model assessed as reduction in disease severity score at 10 mg/kg, po qd measured at day 21 relative to dexamethasone; type: functional; conditions: 504 h
[17] = system: Mus musculus; assay: Immunosuppressive activity in MOG (35 to 55 residues)/pertussis toxin-induced experimental allergic encephalomyelitis C57BL/6J mouse model assessed as IFN-gamma production of CNS infiltrating CD4+ Th1 cells at 10 mg/kg, po qd by intracellular staining method; type: functional, organism-based
[18] = system: Mus musculus; assay: Immunosuppressive activity in MOG (35 to 55 residues)/pertussis toxin-induced experimental allergic encephalomyelitis C57BL/6J mouse model assessed as reduction in disease severity score at 15 mg/kg, po bid measured at day 23 relative to dexamethasone; type: functional; conditions: 552 h
[19] = Tmax in Sprague-Dawley rat at 10 mg/kg, po via gavage measured up to 24 hrs by LC-MS/MS analysis; type: ADME, organism-based; conditions: in vivo
[20] = AUC (0 to infinity) in Sprague-Dawley rat at 10 mg/kg, po via gavage measured up to 24 hrs by LC-MS/MS analysis; type: ADME, organism-based; parameters: dose 10 mg/kg, time infinity, route oral; conditions: in vivo
[21] = AUC (0 to infinity) in Balb/c mouse at 10 mg/kg, po; type: ADME, organism-based; parameters: dose 10 mg/kg, time infinity, route oral; conditions: in vivo
[22] = Tmax in Balb/c mouse at 10 mg/kg, po; type: ADME, organism-based; conditions: in vivo
[23] = Oral bioavailability in Balb/c mouse at 10mg/kg; type: ADME, organism-based; conditions: in vivo
[24] = Half life in Balb/c mouse at 10 mg/kg, po; type: ADME, organism-based; conditions: in vivo
[25] = Cmax in Balb/c mouse at 10 mg/kg, po; type: ADME, organism-based; parameters: dose 10 mg/kg, route oral; conditions: in vivo
[26] = Clearance in Sprague-Dawley rat at 3 mg/kg, iv administered as single dose measured up to 24 hrs by LC-MS/MS analysis; type: ADME, organism-based; conditions: in vivo
[27] = Volume of distribution at steady state in Sprague-Dawley rat at 3 mg/kg, iv administered as single dose measured up to 24 hrs by LC-MS/MS analysis; type: ADME, organism-based; conditions: in vivo, read-out: Vdss
[28] = AUC (0 to infinity) in Balb/c mouse at 3 mg/kg, iv; type: ADME, organism-based; parameters: dose 3 mg/kg, route intravenous, time infinity; conditions: in vivo
[29] = AUC (0 to infinity) in Sprague-Dawley rat at 3 mg/kg, iv administered as single dose measured up to 24 hrs by LC-MS/MS analysis; type: ADME, organism-based; parameters: dose 3 mg/kg, time infinity, route intravenous; conditions: in vivo
[30] = Oral bioavailability in Sprague-Dawley rat at 10mg/kg via gavage measured up to 24 hrs by LC-MS/MS analysis; type: ADME, organism-based; conditions: in vivo
[31] = Cmax in Sprague-Dawley rat at 10 mg/kg, po via gavage measured up to 24 hrs by LC-MS/MS analysis; type: ADME, organism-based; parameters: dose 10 mg/kg, route oral; conditions: in vivo
[32] = AUC (0 to 24 hrs) in Sprague-Dawley rat at 3 mg/kg, iv administered as single dose measured up to 24 hrs by LC-MS/MS analysis; type: ADME, organism-based; parameters: time < 24 hr, dose 3 mg/kg, route intravenous; conditions: in vivo
[33] = Half life in Balb/c mouse at 3 mg/kg, iv; type: ADME, organism-based; conditions: in vivo
[34] = Half life in Sprague-Dawley rat at 3 mg/kg, iv administered as single dose measured up to 24 hrs by LC-MS/MS analysis; type: ADME, organism-based; conditions: in vivo
[35] = Clearance in Balb/c mouse at 3 mg/kg, iv; type: ADME, organism-based; conditions: in vivo
[36] = Volume of distribution at steady state in Balb/c mouse at 3 mg/kg, iv; type: ADME, organism-based; conditions: in vivo, read-out: Vdss
[37] = AUC (0 to 24 hrs) in Balb/c mouse at 3 mg/kg, iv; type: ADME, organism-based; parameters: time < 24 hr, dose 3 mg/kg, route intravenous; conditions: in vivo
[38] = Half life in Sprague-Dawley rat at 10 mg/kg, po via gavage measured up to 24 hrs by LC-MS/MS analysis; type: ADME, organism-based; conditions: in vivo
[39] = AUC (0 to 24 hrs) in Balb/c mouse at 10 mg/kg, po; type: ADME, organism-based; parameters: time < 24 hr, dose 10 mg/kg, route oral; conditions: in vivo
[40] = AUC (0 to 24 hrs) in Sprague-Dawley rat at 10 mg/kg, po via gavage measured up to 24 hrs by LC-MS/MS analysis; type: ADME, organism-based; parameters: time < 24 hr, dose 10 mg/kg, route oral; conditions: in vivo

CCS(=O)(=O)c1ccc(CC(=O)Nc2cc(Cl)c(-c3ccccc3OC(F)(F)F)c(Cl)c2)cc1
Tmax [1]: 2 h
AUC [2]: 22.3 µM·h
F [3]: 79%
Vd [4]: 3.5 L/kg
inhibition [5]: Active
inhibition [6]: Active
remaining at 0.5 h, 1 µM [7]: 65%
remaining at 0.5 h, 1 µM [8]: 70%
IC50 [9]: > 50 µM
IC50 [10]: 9.6 µM
IC50 [11]: 2.1 µM
IC50 [12]: > 50 µM
half-life [13]: 10.7 h
Cmax [14]: 3000 nM
remaining at 0.5 h, 1 µM [15]: 100%
inhibition in vivo at 10 mg/kg [16]: 24%
inhibition [17]: inactive

C[S+](C)[O-] [DIMETHYL SULFOXIDE]
inhibition in vivo at 15 mg/kg [18]: 15%

O=C([O-])c1ccc(-n2cc(C(=O)c3c(Cl)cccc3Cl)c3cccc(F)c32)cc1.[Na+]
Tmax [19]: 0.5 h
AUC(0-inf) [20]: 7.59 µM·h
AUC(0-inf) [21]: 12.7 µM·h
Tmax [22]: 0.5 h
bioavailability [23]: 91%
half-life [24]: 3.5 h
Cmax [25]: 7000 nM
clearance [26]: 28.9 mL/min/kg
Vd [27]: 4.32 L/kg
AUC(0-inf) [28]: 4.6 µM·h
AUC(0-inf) [29]: 4.11 µM·h
bioavailability [30]: 50%
Cmax [31]: 3000 nM
AUC(0-t) at 24 h [32]: 3.69 µM·h
half-life [33]: 2.7 h
half-life [34]: 3.47 h
clearance [35]: 25.2 mL/min/kg
Vd [36]: 4.3 L/kg
AUC(0-t) at 24 h [37]: 4.2 µM·h
half-life [38]: 2.54 h
AUC(0-t) at 24 h [39]: 12.6 µM·h
AUC(0-t) at 24 h [40]: 6.7 µM·h
